Experimental data published in US12435050B2, “Benazolin-choline and its use in the agrochemical field” (BAYER AKTIENGESELLSCHAFT, priority 2019, dated 2025).
Entries after “also recorded” stand apart in the source; their conditions may differ. Read-outs that look alike come from different tables or passages of the source.

Legend:
[1] = cited from earlier work
[2] = test system: Amaranthus retroflexus (AMARE); test: Greenhouse weed control efficacy on AMARE; type: in vivo; details: for % Control compared to untreated AMARE plants 21 DAA: 100 g a.e./ha, AMARE at BBCH 16-19 at application, visual rating 21 DAA; for % Control compared to untreated plants 21 DAA AMARE: BBCH 16-19, 21 DAA
Text: (§1) The different forms of benazolin were applied to weed plants in the greenhouse or in the field at the growth stage indicated for the different weed species hereinafter. The trials in the greenhouse were sprayed with an application volume of 300 L/ha with an automated track sprayer. The plots in the field were sprayed with an application volume of 140 L/ha with a hand held spray boom. Twenty-one days after application (21 DAA) or twenty-eight days after application (28 DAA) the different weed species were visually rated on a percentage scale in relation to the untreated control (100%=all plants dead; 50%=green plant biomass reduced by 50%, and 0%=no discernible difference=like control plot). The growth stages of the different weed species are indicated according to the BBCH monograph “Growth stages of mono- and dicotyledonous plants”, 2nd edition, 2001, ed. Uwe Meier, Federal Biological Research Centre for Agriculture and Forestry (Biologische Bundesanstalt für Land and Forstwirtschaft).

[3] = test system: Alternanthera tenella (ALRTE); test: Field weed control efficacy on ALRTE; type: in vivo; details: 200 g a.e./ha, ALRTE at BBCH 14-16 at application
Text: as §1

[4] = test system: Portulaca oleracea (POROL); test: Field weed control efficacy on POROL; type: in vivo; details: 200 g a.e./ha, POROL at BBCH 21-22 at application
Text: as §1

[5] = test system: Euphorbia heterophylla (EPHHL); test: Field weed control efficacy on EPHHL; type: in vivo; details: 200 g a.e./ha, EPHHL at BBCH 16-17 at application
Text: as §1

[6] = test system: Chenopodium album (CHEAL); test: Greenhouse weed control efficacy on CHEAL; type: in vivo; details: BBCH 15-24, 21 DAA
Text: as §1

[7] = Formulation compatibility: crystal formation after low temperature storage, mixing with dicamba (Clarity); type: physicochemical; details: benazolin salt SL10 mixed with Clarity, ratio 2:1 (a.e., w/w), 5° C. for 2 days
Procedure: (§2) Here simple mixing experiments were performed with soluble liquid SL 10 formulations of benazolin salts containing […] a.e. of benazolin (see General procedure 51 above) containing no surfactant and commercially available dicamba and glyphosate formulations.
(§3) Formulation compatibility (solubility, miscibility and storability) tests of different benazolin salt SL 10 formulations in mixture with commercial formulations of herbicides such as dicamba or glyphosate were performed.
In a first experiment, Clarity® (a commercial formulation of dicamba) was tank mixed with the respective benazolin salt SL 10 formulation in a 2:1 ratio by weight (w/w) based on the respective a.e. contents (in Table B5a referred to as “Ratio”) and the vial placed at 5° C. for 2 days.

[8] = Formulation compatibility: crystal formation after low temperature storage, mixing with glyphosate (Roundup Weathermax); type: physicochemical; details: benazolin salt SL10 mixed with Roundup Weathermax, ratio 4:1 (a.e., w/w), 5° C. for 2 days
Procedure: as §2, §3
In a second experiment, Roundup® Weathermax was tank mixed with the respective benazolin salt SL 10 formulation in a 4:1 ratio by weight (w/w) based on the respective a.e. contents (in Table B5b referred to as “Ratio”) and the vial placed at 5° C. for 2 days.

[9] = free acid, temperature not printed with the values (b59 refers to 25° C.)
[10] = benazolin salt 100 g a.e./ha in combination with 100 g a.e./ha dicamba (Clarity)
[11] = benazolin salt 100 g a.e./ha in combination with 200 g a.e./ha dicamba (Clarity)
[12] = benazolin salt 100 g a.e./ha in combination with 300 g a.e./ha dicamba (Clarity)

Structure (SMILES) | % Control compared to untreated AMARE plants 21 DAA [2] [%] | % Control compared to untreated ALRTE plants 21 DAA [3] [%] | % Control compared to untreated POROL plants 28 DAA [4] [%] | % Control compared to untreated EPHHL plants 28 DAA [5] [%] | % Control compared to untreated plants 21 DAA AMARE [2, 10] [%] | % Control compared to untreated plants 21 DAA AMARE [2, 11] [%] | % Control compared to untreated plants 21 DAA AMARE [2, 12] [%] | % Control compared to untreated plants 21 DAA CHEAL [6, 10] [%] | % Control compared to untreated plants 21 DAA CHEAL [6, 11] [%] | % Control compared to untreated plants 21 DAA CHEAL [6, 12] [%] | Microscopic evaluation (crystal formation) [8] | further results
O=C(O)COc1ccc(Cl)cc1Cl [2,4-D, 2,4-dichlorophenoxy)acetic acid] |  |  |  |  |  |  |  |  |  |  |  | vapor pressure [1, 9]: about 0.019 mPa
O=C(O)Cn1c(=O)sc2cccc(Cl)c21 [Benazolin, 4-Chloro-2,3-dihydro-2-oxo-1,3-benzothiazol-3-ylacetic acid] | 25 | 40 | 88 | 5 |  |  |  |  |  |  |  | vapor pressure ([1]; at 20° C.): 0.0001 mPa
O=C(O)Cn1c(=O)sc2cccc(Cl)c21 [Benazolin-BAPMA] | 65 |  |  |  | 35 | 50 | 65 | 50 | 65 | 67 |  | 
O=C(O)Cn1c(=O)sc2cccc(Cl)c21 [Benazolin-DEA] |  |  |  |  |  |  |  |  |  |  |  | Microscopic evaluation (crystal formation) [7]: Crystal formation; Microscopic evaluation (shape of crystals) [7]: platelets + needles; Microscopic evaluation (size of crystals in μm) [7]: (20-40 μm),
O=C(O)Cn1c(=O)sc2cccc(Cl)c21 [Benazolin-DGA] | 40 | 44 | 50 | 8 | 35 | 40 | 55 | 25 | 65 | 50 | Crystal formation | Microscopic evaluation (shape of crystals) [8]: needles; Microscopic evaluation (size of crystals in μm) [8]: (60-100 μm),
O=C([O-])Cn1c(=O)sc2cccc(Cl)c21.[K+] [Benazolin-K] |  |  |  |  |  |  |  |  |  |  | Crystal formation | Microscopic evaluation (shape of crystals) [8]: platelets + needles; Microscopic evaluation (size of crystals in μm) [8]: (20-50 μm),
O=C(O)Cn1c(=O)sc2cccc(Cl)c21 [Benazolin-choline] | 70 | 48 | 100 | 13 | 50 | 80 | 75 | 70 | 80 | 85 | no crystal formation was observed; also recorded: No crystals | Microscopic evaluation (crystal formation) [7]: no crystal formation was observed; also recorded: No crystals
CCOC(=O)Cn1c(=O)sc2cccc(Cl)c21 [Benazolin-ethyl, Ethyl (4-chloro-2-oxo-1,3-benzothiazol-3(2H)-yl)acetate] | 35 | 40 | 88 | 8 |  |  |  |  |  |  |  | 
COc1c(Cl)ccc(Cl)c1C(=O)O [Dicamba, 3,6-dichloro-2-methoxybenzoic acid] |  |  |  |  |  |  |  |  |  |  |  | vapor pressure [1, 9]: 4.5 mPa
